Measured values as given in US20020028807A1, “Non-nucleoside reverse transcriptase inhibitors” (priority 2000, published 2002).

How the values were obtained:
HIV-1 RT wild-type (WT) = biological target: T1, HIV-1 RT wild-type (WT) (Human immunodeficiency virus type 1 group M subtype B, UniProt P03366); test: Reverse transcriptase (RT) assay, wild-type enzyme; type: biochemical
T1 construct: an HIV RT clone pKRT2 containing only the RT p66 gene regulated by the lac operon/trc promoter; made in house; host or cells: E. coli JM109, vector pKK233-2
Description: (§1) Among the enzymes for which Human Immunodeficiency Virus (HIV-1) encodes is a reverse transcriptase (1), so-named because it transcribes a DNA copy from an RNA template. This activity can be quantitatively measured in a cell-free enzyme assay and is based upon the observation that reverse transcriptase is able to use a synthetic template poly r(C) primed with a biotinylated oligo d(G) to transcribe a radio-labelled DNA strand utilising 3H-dGTP as a substrate. The assay described below utilises the wild-type enzyme (which is the predominant form of the enzyme observed in patients infected with HIV-1) and can also be used with mutant RT enzymes (for example, Y181C, prepared by site-directed mutagenesis in which the tyrosine residue at codon 181 has been replaced by a cysteine residue) in analogous assay conditions. This assay allows compounds to be evaluated for their effectiveness at inhibiting the mutant enzymes.
(§2) Some HIV-1 IIIB clone BH10 RT mutants were provided by Dr. C.-K. Shih (Boehringer Ingelheim Pharmaceutials Inc., U.S.A.) in the vector pKK233-2 (Pharmacia). Briefly an HIV RT clone pKRT2 containing only the RT p66 gene regulated by the lac operon/trc promoter was obtained from Dr. W. Summers (Yale University) (2). A variety of specific amino acid substitutions were introduced into the wild-type RT gene by site-directed mutagenesis. RT clones were subcloned into the pKK233-2 bacterial expression vector. Clones provided included wild-type, Val106Ala, Tyr181Cys, Tyr188Cys, Tyr188Leu, Gly190Ala and Pro236Leu. Others were made in-house by site-directed mutagenesis of the pKK233-2 RT clones including Lys103Asn, Lys103Asn/Tyr181Cys, Lys103Asn/Leu100Ile, Lys103Asn/Pro225His, and Lys103Asn/Val108Ile.
(§3) Purification of recombinant reverse transcriptase was performed using a combination of methods previously described (3). A single colony from a fresh plate of transformed JM109 cells was used to initiate growth of a pre-culture grown o/n at 37° C. Two liters of growth medium were inoculated with this pre-culture. At OD600˜1.5 (5-6 h at 37° C.), RT gene expression was induced with IPTG (1 mM final), and the fermentation was continued for a few more hours at 37° C. After centrifugation, supernatants were discarded while cell pellets were pooled and stored at −80° C. until purification. Cells were thawed at 4° C. overnight and suspended in lysis buffer (MES 50 mM pH 6, EDTA 1 mM, 10% v/v glyerol, 0.02% w/v OBG, 0.02% w/v sodium azide). Lysozyme was added and the mixture was incubated on ice for 40 minutes. After homogenization using a bounce in presence of lysozyme and sonication, the cells were centrifuged for 30 minutes. Supernatant (S1) was saved and stored at 4° C. The centrifuged pellet was resuspended in extraction buffer (MES 50 mM pH 6, KPO4 50 mM pH 6, KCl 100 mM, 10% v/v glycerol, 0.02% w/v OBG, 0.02% w/v sodium axide) and stirred for 30 minutes at 4° C. This second mixture was centrifuged again and the supernatant (S2) was saved. The above procedure was repeated 2 more times saving supernatants S3 and S4 and one last extraction was performed overnight (S5). Polymin P (0.005% final) was added to the combined supernatants to remove nucleic acids. This solution was stirred for 75 minutes at 4° C. and centrifuged for 1 h. The supernatant (SS1) was precipitated on ice with 20% w/v ammonium sulfate and stirred for 1 h at 4° C. The mixture was then centrifuged and the resulting supernatant (SS2) was precipitated with additional 40% w/v ammonium sulfate (60% total), stirred for 1 h and centrifuged again. The final pellet (P1) was stored overnight at 4° C. before undergoing purification the following day. All steps of the purification were performed at 4° C. unless otherwise stated.
(§4) Pellet (P1) was resuspended into MES 50 mM pH 6, KPO4 10 mM pH 6, KCl 100 mM, 10% v/v glycerol, 0.02% w/v OBG, 0.02% w/v sodium azide. The suspension was dialysis against the same buffer overnight using 12-14 kD MWCO dialysis tubing. […]

HIV-1 RT K103N = biological target: T2, HIV-1 RT K103N (Human immunodeficiency virus type 1 group M subtype B, UniProt P03366, K702N); test: Reverse transcriptase (RT) assay, K103N mutant; type: biochemical
T2 construct: an HIV RT clone pKRT2 containing only the RT p66 gene regulated by the lac operon/trc promoter; made in house; host or cells: E. coli JM109, vector pKK233-2
Description: as §1, §2, §3, §4

HIV-1 RT Y181C = biological target: T3, HIV-1 RT Y181C (Human immunodeficiency virus type 1 group M subtype B, UniProt P03366, Y780C); test: Reverse transcriptase (RT) assay, Y181C mutant; type: biochemical
T3 construct: an HIV RT clone pKRT2 containing only the RT p66 gene regulated by the lac operon/trc promoter; made in house; host or cells: E. coli JM109, vector pKK233-2
Description: as §1, §2, §3, §4

HIV-1 RT V106A = biological target: T4, HIV-1 RT V106A (Human immunodeficiency virus type 1 group M subtype B, UniProt P03366, V705A); test: Reverse transcriptase (RT) assay, V106A mutant; type: biochemical
T4 construct: an HIV RT clone pKRT2 containing only the RT p66 gene regulated by the lac operon/trc promoter; made in house; host or cells: E. coli JM109, vector pKK233-2
Description: as §1, §2, §3, §4

HIV-1 RT Y188L = biological target: T5, HIV-1 RT Y188L (Human immunodeficiency virus type 1 group M subtype B, UniProt P03366, Y787L); test: Reverse transcriptase (RT) assay, Y188L mutant; type: biochemical
T5 construct: an HIV RT clone pKRT2 containing only the RT p66 gene regulated by the lac operon/trc promoter; made in house; host or cells: E. coli JM109, vector pKK233-2
Description: as §1, §2, §3, §4

HIV-1 RT K103N/Y181C = biological target: T6, HIV-1 RT K103N/Y181C (Human immunodeficiency virus type 1 group M subtype B, UniProt P03366, K702N/Y780C); test: Reverse transcriptase (RT) assay, K103N/Y181C mutant; type: biochemical
T6 construct: an HIV RT clone pKRT2 containing only the RT p66 gene regulated by the lac operon/trc promoter; made in house; host or cells: E. coli JM109, vector pKK233-2
Description: as §1, §2, §3, §4

HIV-1 RT K103N/P225H = biological target: T7, HIV-1 RT K103N/P225H (Human immunodeficiency virus type 1 group M subtype B, UniProt P03366, K702N/P824H); test: Reverse transcriptase (RT) assay, K103N/P225H mutant; type: biochemical
T7 construct: an HIV RT clone pKRT2 containing only the RT p66 gene regulated by the lac operon/trc promoter; made in house; host or cells: E. coli JM109, vector pKK233-2
Description: as §1, §2, §3, §4

HIV-1 RT K103N/V108I = biological target: T8, HIV-1 RT K103N/V108I (Human immunodeficiency virus type 1 group M subtype B, UniProt P03366, K702N/V707I); test: Reverse transcriptase (RT) assay, K103N/V108I mutant; type: biochemical
T8 construct: an HIV RT clone pKRT2 containing only the RT p66 gene regulated by the lac operon/trc promoter; made in house; host or cells: E. coli JM109, vector pKK233-2
Description: as §1, §2, §3, §4

HIV-1 RT K103N/L100I = biological target: T9, HIV-1 RT K103N/L100I (Human immunodeficiency virus type 1 group M subtype B, UniProt P03366, K702N/L699I); test: Reverse transcriptase (RT) assay, K103N/L100I mutant; type: biochemical
T9 construct: an HIV RT clone pKRT2 containing only the RT p66 gene regulated by the lac operon/trc promoter; made in house; host or cells: E. coli JM109, vector pKK233-2
Description: as §1, §2, §3, §4

[1] = test system: HIV coding for wild-type reverse transcriptase (WT RT); test: ELISA (p24) assay of HIV replication in C8166 cell culture, wild-type RT virus; type: cell-based, HIV-1; settings: Human immunodeficiency virus 1, C8166, 72 h, read-out: EC50 WT RT
Procedure: Compounds of the invention were tested for their ability to inhibit HIV replication in cell culture in a 96-well plate assay. Complete RPMI 1640, consisting of RPMI 1640+10% fetal bovine serum, 10 μg/ml gentamycin and 10 μM β-mercaptoethanol was used for dilution of the compound as well as cell growth medium. The T lymphocyte cell line C8166 was infected at a multiplicity of infection of 0.001 with viruses coding for wild-type and mutant reverse transcriptase. Cells were then incubated for three days in the presence of serial dilutions of the compounds of the invention. The supernatant was pooled from eight replica wells and the concentration of extracellular p24 was determined using a commercially available HIV-1 p24 antigen assay kit (Beckman-Coulter®). The level of inhibition (% inhibition) was calculated with the following equation: [formula]

Row | SMILES | IC50 (HIV-1 RT wild-type (WT)) [nM] | IC50 (HIV-1 RT K103N) [nM] | IC50 (HIV-1 RT Y181C) [nM] | IC50 (HIV-1 RT V106A) [nM] | IC50 (HIV-1 RT Y188L) [nM] | IC50 (HIV-1 RT K103N/Y181C) [nM] | IC50 (HIV-1 RT K103N/P225H) [nM] | IC50 (HIV-1 RT K103N/V108I) [nM] | IC50 (HIV-1 RT K103N/L100I) [nM] | EC50 [1] [nM]
1 | CCN1c2ncc(CCOc3ccnc4ccccc34)cc2C(=O)Nc2c(C)cc(Cl)nc21 [compound 1, 2-Chloro-5,11-dihydro-11-ethyl-4-methyl-8-{2-(4-quinolinyloxy)ethyl}-6H-dipyrido[3,2-b:2′,3′-e][1,4]diazepin-6-one] | 10.5 | 19 | 20 | 132 | 2740 | 52 | 31.2 | 29 | 28.5 | 2.6
2 | Cc1ccnc2c1NC(=O)c1cc(CCOc3ccnc4ccccc34)cnc1N2C1CC1 [compound 3, 11-(Cyclopropyl)-5,11-dihydro-4-methyl-8-{2-(4-quinolinyloxy)ethyl}-6H-dipyrido[3,2-b:2′,3′-e][1,4]diazepin-6-one] | 16.5 | 45 | 73 | 79 | 3240 | 612 | 56 | 47 | 124 | 1.3
3 | CCN1c2ncc(CCOc3ccnc4ccccc34)cc2C(=O)N(C)c2ccc(F)nc21 [compound 4, 5,11-Dihydro-11-ethyl-2-fluoro-5-methyl-8-{2-(4-quinolinyloxy)ethyl}-6H-dipyrido[3,2-b:2′,3′-e][1,4]diazepin-6-one] | 11 | 22.5 | 26 | 206 | 520 | 52 | 27 | 32 | 108 | 0.98
4 | Cc1cc(F)nc2c1NC(=O)c1cc(CCOc3ccnc4ccccc34)cnc1N2C1CC1 [compound 5, 11-(Cyclopropyl)-5,11-dihydro-2-fluoro-4-methyl-8-{2-(4-quinolinyloxy)-ethyl}-6H-dipyrido[3,2-b:2′,3′-e][1,4]diazepin-6-one] | 19 | 37.5 | 76 | 61 | 2540 | 536 | 38 | 38 | 98 | 0.83
5 | CN1C(=O)c2cc(CCOc3ccnc4ccccc34)cnc2N(C2CC2)c2nc(Cl)ccc21 [compound 6, 2-Chloro-11-cyclopropyl-5,11-dihydro-5-methyl-8-{2-(4-quinolinyloxy)-ethyl}-6H-dipyrido[3,2-b:2′,3′-e][1,4]diazepin-6-one] | 25 | – | – | – | – | – | – | – | – | –
6 | CN1C(=O)c2cc(CCOc3cc[n+]([O-])c4ccccc34)cnc2N(C2CC2)c2nc(Cl)ccc21 [compound 10, 2-Chloro-11-cyclopropyl-5,11-dihydro-5-methyl-8-{2-{(1-oxido-4-quinolinyl)oxy}ethyl}-6H-dipyrido[3,2-b:2′,3′-e][1,4]diazepin-6-one] | 41 | 67 | 206 | 1370 | 1420 | 710 | – | 255 | 229 | –
7 | Cc1ccnc2c1NC(=O)c1cc(CCOc3cc[n+]([O-])c4ccccc34)cnc1N2C1CC1 [compound 15] | 61 | 66 | 226 | 206 | > 10000 | 1520 | 93 | 215 | 270 | –
8 | CCN1c2nc(Cl)ccc2NC(=O)c2cc(CCOc3cc[n+]([O-])c4ccccc34)cnc21 [compound 22, 2-Chloro-5,11-dihydro-11-ethyl-8-{2-{(1-oxido-4-quinolinyl)-oxy}ethyl}-6H-dipyrido[3,2-b:2′,3′-e][1,4]diazepin-6-one] | 45 | – | – | 2490 | 2990 | 336 | – | – | – | –
9 | CCN1c2ncc(CCOc3cccc4c3ccc[n+]4[O-])cc2C(=O)Nc2c(C)cc(F)nc21 [compound 23, 5,11-Dihydro-11-ethyl-2-fluoro-4-methyl-8-{2-{(1-oxido-5-quinolinyl)-oxy}ethyl}-6H-dipyrido[3,2-b:2′,3′-e][1,4]diazepin-6-one] | 6.1 | – | – | 105 | 5610 | 247 | – | – | – | –
10 | CCN1C(=O)c2cc(CCOc3cc[n+]([O-])c4ccccc34)cnc2N(CC)c2ncccc21 [compound 27, 5,11-Dihydro-5,11-diethyl-8-{2-{(1-oxido-4-quinolinyl)oxy}ethyl}-6H-dipyrido[3,2-b:2′,3′-e][1,4]diazepin-6-one] | 38 | – | – | 2270 | 5340 | 299 | – | – | – | –
